Measured values: patent US20250230226A1, “PLXDC1/PLXDC2 ACTIVATORS AND THEIR USE IN THE TREATMENT OF BLOOD VESSEL DISORDERS” (THE REGENTS OF THE UNIVERSITY OF CALIFORNIA, priority 2019, published 2025)

Test system: LL/2 lung cancer tumor endothelial cells
Assay: Lung LL2 ex vivo model of tumor angiogenesis
Assay type: cell-based, mouse
Details: for 48 hrs (morphology observations): LL/2 tumor endothelial cells; for Cell death: drug treatment for two days, ratio of red area to total endothelial cell area; for cytotoxicity at 40 µM: Mus musculus, Endothelial cell, 48 h, read-out: Cell death
Method: An ex vivo tumor angiogenesis model was developed to test the efficacy of anti-cancer candidate agents. The following protocol describes the Ex Vivo Tumor Angiogenesis Model.
• 1. The day before the experiment, all necessary tools were sprayed with 70% ethanol and sterilized under UV light overnight, including blade, dissecting and micro-dissecting scissors and […]. 24-well dishes were placed at 4° C. to pre-chill plates and Matrigel was thawed, 24 hours before tumor dissection. • 2. 70% ethanol was sprayed on working bench. Two sterile petri dishes were prepared with 10 ml sterile PBS. The following steps 3 and 4 are necessary for mouse tumor models. For fresh human tumor, steps 3 and 4 are skipped. • 3. The tumor-bearing mice were euthanized. 70% ethanol was sprayed on the mouse and the tumor was removed using sterilized dissecting tools (avoid the fur). The tumor was rinsed in petri dish with sterile PBS to remove ethanol and fur. The tumor was transferred to a new petri dish with PBS for dissection. The dish is placed on ice. • 4. Pre-chilled sterile pipet tips were used to seed regular Matrigel in 24 well plates on ice. Matrigel (30 μl) was dropped in the middle of each well without touching the edge of the well (avoid introducing bubbles if possible). • 5. The tumor was cut in halves using the sterile blade. Healthy tumor tissue that is not necrotic and is within the tumor capsule was identified and isolated. The healthy tumor tissue was cut into small pieces. For instance, a suitable size for the tumor tissue is 0.5 mm (H)×0.5 mm (L)×0.3 mm (D) with a total volume of 0.075 mm^3. • 6. Each tumor piece was gently transferred and embedded in the Matrigel drop in the 24-well plate. The embedded piece was placed in the bottom and middle of each Matrigel drop. The plate was kept on ice all the time. • 7. After seeding the tumor pieces, plates were incubated in a 37° C. cell culture incubator without medium for 10 minutes in order for the Matrigel to solidify. • 8. Endothelial Growth Medium (0.5 ml) was added to each well and incubated at 37° C. with 5% CO2. Treatment was not added until the new endothelial cells was grown out of the tumor or were larger than 3 mm in diameter. This usually takes 4 days for the LL2 Lewis lung cancer model and 7 days for the CT26 colon cancer model. For human tumor models, the growth time is typically 2-3 weeks, depending on the tumor type. Media was changed every 4 days during prolonged culture. Typically, when the tumor tissue grows to 2 mm in diameter, it was good for drug testing. A size of about 3 mm in diameter can make visualization easier. • 9. When the assay was ready to be analyzed for cell death (e.g., 48 hours after drug addition), the dye mixture was prepared by mixing 6 μl of green dye to stain live cells (5 mg/ml Fluorescein diacetate or FDA in DMSO) with 30 μl of red dye (2.5 mg/ml Propidium iodide or PI in PBS) to stain dead cells in an Eppendorf tube. The FDA dye needs to be stored frozen in a −20° C. freezer because it has a labile ester bond. • 10. 1 μl of the dye mixture was added to each well of the 24-well dish. It is usually preferred to do one 24-well dish at a time given the amount of time needed to take pictures (the green dye is not as stable in the cells in the long term). • 11. The dish was gently rocked a few times to mix the dye with the media in the wells and incubate the dish at 37° C. for 10 min (too long incubation can make the green signal too intense). • 12. Each well was washed with 0.5 ml of sterile PBS and then 0.5 ml of phenol red free SFM was added to each well. Alternatively 0.5 ml of regular Endothelial Cell Growth Media can be added to each well if this well needs to be continuously maintained after the experiment. • 13. An inverted microscope using the 2× objective lens was used to observe morphological changes in the experimental wells. • 14. […]

SMILES	48 hrs (morphology observations) (40 μm)	Cell death (40 μm)	48 hrs (morphology observations) (10 μm)	Cell death (10 μm)	cytotoxicity at 40 µM
CCCCOc1ccc(S(=O)(=O)c2cnc3ccc(C(=O)OCC)cc3c2N2CCCN(CCN3CCCCC3)CC2)cc1 [Compound 181]	**** (100% of endothelial cells vesicularize in cell shape and look flattened in morphology (indicating disintegration of the cell body))	100%	–	–	–
CCCCOc1ccc(S(=O)(=O)c2cnc3ccc(C(=O)OCC)cc3c2N2CCCN(CCN3CCCC3)CC2)cc1 [Compound 182]	**** (100% of endothelial cells vesicularize in cell shape and look flattened in morphology (indicating disintegration of the cell body))	100%	–	–	–
CCOC(=O)c1ccc2ncc(S(=O)(=O)c3ccc(OC)cc3)c(-n3cncn3)c2c1 [Compound 183]	–	–	**** (100% of endothelial cells vesicularize in cell shape and look flattened in morphology (indicating disintegration of the cell body))	100%	–
CCOC(=O)c1ccc2ncc(S(=O)(=O)c3ccc(OC)cc3)c(-n3ccnn3)c2c1 [Compound 184]	–	–	0	5%	–
CCOC(=O)c1ccc2ncc(S(=O)(=O)c3ccc(OC)cc3)c(-n3cnnn3)c2c1 [Compound 185]	–	–	* (50% or less of cells vesicularize in cell shape)	30%	–
CCCCOc1ccc(S(=O)(=O)c2cnc3ccc(C(=O)OCC)cc3c2-n2cnnn2)cc1 [Compound 186]	–	–	**** (100% of endothelial cells vesicularize in cell shape and look flattened in morphology (indicating disintegration of the cell body))	90%	–
CCCCOc1ccc(S(=O)(=O)c2cnc3ccc(OC(F)(F)F)cc3c2N2CCSCC2)cc1 [Compound 187]	0	30%	–	–	–
CCCCOc1ccc(S(=O)(=O)c2cnc3ccc(C(=O)NC4C(O)O[C@H](CO)[C@@H](O)[C@@H]4O)cc3c2N2CCCN(C)CC2)cc1 (some centres unmarked) [Compound 193]	0	–	–	–	30%
CCCCOc1ccc(S(=O)(=O)c2cnc3ccc(C(=O)OCC)cc3c2N2CC[S+]([O-])CC2)cc1 [Compound 195]	0	–	–	–	–
CCCCOc1ccc(S(=O)(=O)c2cnc3ccc(C(=O)OCC)cc3c2N2CCS(=O)(=O)CC2)cc1 [Compound 196]	0	30%	–	–	–
CCCCOc1ccc(S(=O)(=O)c2cnc3ccc(OC(F)(F)F)cc3c2N2CC[S+]([O-])CC2)cc1 [Compound 197]	0	20%	–	–	–
CCCCOc1ccc(S(=O)(=O)c2cnc3ccc(OC(F)(F)F)cc3c2N2CCS(=O)(=O)CC2)cc1 [Compound 198]	0	30%	–	–	–
CCCCOc1ccc(S(=O)(=O)c2cnc3ccc(C(=O)N(CC)CC)cc3c2N2CCCN(C)CC2)cc1 [Compound 199]	0	30%	–	–	–
CCCCOc1ccc(S(=O)(=O)c2cnc3ccc(C(=O)NCCO)cc3c2N2CCCN(C)CC2)cc1 [Compound 200]	0	–	–	–	30%
CCCCOc1ccc(S(=O)(=O)c2cnc3ccc(C(=O)OCC)cc3c2N2CCN(c3ccc(F)cc3)CC2)cc1 [Compound 213]	0	–	–	–	30%
CCCCOc1ccc(S(=O)(=O)c2cnc3ccc(C(=O)OCC)cc3c2N2CCC(N3CCSCC3)CC2)cc1 [Compound 217]	0	30%	–	–	–
CCCCCCCOc1ccc(S(=O)(=O)c2cnc3ccc(SC)cc3c2N2CCC(N3CCC(O)CC3)CC2)cc1 [Compound 223]	*** (more than 50% but less than 100% of endothelial cells vesicularize in cell shape)	–	–	–	30%
CCOC(=O)c1ccc2ncc(S(=O)(=O)c3ccc(OC)cc3)c(NN3CCN(C)CC3)c2c1 [Compound 225]	0	40%	–	–	–

SMILES	48 hrs (morphology observations) (40 μm)	Cell death (40 μm)	48 hrs (morphology observations) (10 μm)	Cell death (10 μm)	cytotoxicity at 40 µM
COc1ccc(S(=O)(=O)c2cnc3ccc(SC)cc3c2NN2CCN(C)CC2)cc1 [Compound 226]	* (50% or less of cells vesicularize in cell shape)	10%	–	–	–
COc1ccc(S(=O)(=O)c2cnc3ccc([S+](C)[O-])cc3c2NN2CCN(C)CC2)cc1 (centres unmarked) [Compound 227]	0	10%	–	–	–
COc1ccc(S(=O)(=O)c2cnc3ccc(S(C)(=O)=O)cc3c2NN2CCN(C)CC2)cc1 [Compound 228]	0	5%	–	–	–
CCCCOc1ccc(S(=O)(=O)c2cnc3ccc(SC)cc3c2N2CCC(N3CCOCC3)CC2)cc1 [Compound 229]	0	30%	–	–	–
CCCCOc1ccc(S(=O)(=O)c2cnc3ccc(SC)cc3c2N2CCC(N3CCN(CCO)CC3)CC2)cc1 [Compound 230]	*** (more than 50% but less than 100% of endothelial cells vesicularize in cell shape)	–	–	–	100%
CCCCOc1ccc(S(=O)(=O)c2cnc3ccc(SC)cc3c2N2CCC(N3CCC(N4CCCCC4)CC3)CC2)cc1 [Compound 231]	*** (more than 50% but less than 100% of endothelial cells vesicularize in cell shape)	100%	–	–	–
CCCCOc1ccc(S(=O)(=O)c2cnc3ccc(SC)cc3c2N2CCC(N3CCC(O)(c4ccccc4)CC3)CC2)cc1 [Compound 232]	0	10%	–	–	–
CCCCOc1ccc(S(=O)(=O)c2cnc3ccc(SC)cc3c2N2CCC(N3CCN(c4ccc(F)cc4)CC3)CC2)cc1 [Compound 233]	0	5%	–	–	–
CCCCOc1ccc(S(=O)(=O)c2cnc3ccc(SC)cc3c2N2CCC(N3CCCN(C)CC3)CC2)cc1 [Compound 234]	*** (more than 50% but less than 100% of endothelial cells vesicularize in cell shape)	100%	–	–	–
CCCCOc1ccc(S(=O)(=O)c2cnc3ccc([S+](C)[O-])cc3c2N2CCC(N3CCOCC3)CC2)cc1 (centres unmarked) [Compound 235]	0	10%	–	–	–
CCCCOc1ccc(S(=O)(=O)c2cnc3ccc([S+](C)[O-])cc3c2N2CCC(N3CCN(CCO)CC3)CC2)cc1 (centres unmarked) [Compound 236]	0	5%	–	–	–
CCCCOc1ccc(S(=O)(=O)c2cnc3ccc([S+](C)[O-])cc3c2N2CCC(N3CCC(N4CCCCC4)CC3)CC2)cc1 (centres unmarked) [Compound 237]	*** (more than 50% but less than 100% of endothelial cells vesicularize in cell shape)	100%	–	–	–
CCCCOc1ccc(S(=O)(=O)c2cnc3ccc([S+](C)[O-])cc3c2N2CCC(N3CCN(c4ccc(F)cc4)CC3)CC2)cc1 (centres unmarked) [Compound 239]	0	40%	–	–	–
CCCCOc1ccc(S(=O)(=O)c2cnc3ccc([S+](C)[O-])cc3c2N2CCC(N3CCC(CO)CC3)CC2)cc1 (centres unmarked) [Compound 240]	0	30%	–	–	–
CCN(CC)CCOc1ccc(S(=O)(=O)c2cnc3ccc(SC)cc3c2N2CCCN(C)CC2)cc1 [Compound 242]	0	30%	–	–	–
CCCCOc1ccc(S(=O)(=O)c2cnc3ccc(SC)cc3c2N2CCC(N3CCSCC3)CC2)cc1 [Compound 243]	0	20%	–	–	–
CCCCOc1ccc(S(=O)(=O)c2cnc3ccc(C(=O)OCC)cc3c2N2CCC(N3CC[S+]([O-])CC3)CC2)cc1 [Compound 244]	0	–	–	–	20%
CCCCOc1ccc(S(=O)(=O)c2cnc3ccc([S+](C)[O-])cc3c2N2CCC(N3CCSCC3)CC2)cc1 (centres unmarked) [Compound 245]	0	40%	–	–	–
